Reference: patent publication US20150118229A1, “JAK1 SELECTIVE INHIBITOR AND USES THEREOF” (ABBVIE INC., priority 2013, published 2015)
Values joined by “and” are separate entries in the source; they are usually repeats but may differ in a detail not shown here. Equal values may be shown once. Read-outs that look alike come from different tables or passages of the source.

Assays:
[1] = system: IL-7-dependent STAT5 phosphorylation; assay: Ex vivo IL-7-stimulated pSTAT5 in blood of orally dosed rats; settings: Rattus norvegicus, po; rats dosed bid 14 days, blood 12 hours after final dose; read-out: IC50, inhibition of IL-7-induced pSTAT5 formation ex vivo
Source text: Unlike other common gamma chain receptors, IL-7 receptors are expressed relatively abundantly on peripheral blood T cells, enabling the use of IL-7 as an agonist in ex vivo stimulation assays. Stimulation of whole blood with IL-7 leads to phosphorylation of STAT5, which can be measured by flow cytometry. Because STAT proteins are Jak kinase substrates, inhibition of their phosphorylation can be considered a mechanistic readout for Jak inhibition.

[2] = Definitive embryofetal development toxicity study in rabbits; assay type: in vivo, New Zealand White rabbits; settings: rabbit
Source text: One additional group of 20 time-mated females served as the control and received the vehicle, 0.2% hydroxypropyl methylcellulose (HPMC, high viscosity) in deionized water.

[3] = Pharmacokinetics in rat; assay type: in vivo; settings: for clearance: read-out: CLp (converted); for Vd: read-out: Vss
[4] = Metabolic stability in hepatocytes, human; assay type: in vitro ADME; settings: read-out: intrinsic clearance in hepatocytes (converted)
[5] = Photostability; assay type: physicochemical; settings: preclinical studies
Source text: In repeated-dose oral toxicity studies in rats and dogs of 6 and 9 months duration, respectively, no evidence of skin or ocular toxicity has been observed.

[6] = target: MATEK (Homo sapiens, UniProt Q86VL8); assay: Transporter inhibition, MATEK
[7] = target: OCT2 (Homo sapiens, UniProt O15244); assay: Transporter inhibition, OCT2; settings: up to 30 μM
[8] = Metabolic stability in hepatocytes, monkey; assay type: in vitro ADME; settings: read-out: intrinsic clearance in hepatocytes (converted)
[9] = rat, in vivo
Method: The 4-week rat study was conducted at dose levels of 0, 10, 50, 100, and 200 mg/kg/day by daily oral administration (gavage). […] The cause of death was not determined for animals that died.

[10] = Plasma protein binding, dog; assay type: in vitro ADME
[11] = system: GMCSF-induced pSTAT5 (Jak2 signaling); assay: Ex vivo stimulation assay GM-CSF pSTAT5, orally dosed human; settings: 24 mg but not 12 mg oral, 1 hour post dose
[12] = 6-month (26 weeks) GLP chronic oral toxicity study in rats; assay type: in vivo, rat; settings: for AUC(0-t) / Cmax: po, rat 20 mg/kg/day; for AUC(0-t): read-out: AUC0-24 at NOAEL; for Cmax: read-out: Cmax at NOAEL
Method: The GLP-compliant studies each included 4 weeks of oral dosing followed by a 4-week recovery period in both rats and dogs followed by GLP-compliant chronic toxicity studies in rats (6 months of oral dosing) and dogs (9 months of oral dosing).
The 6-month chronic rat study was conducted at dose levels of 0, 5, 20, and 50 mg/kg/day by daily oral administration (gavage).

[13] = female, Sprague-Dawley, rat, plasma, po, 50 mg/kg/day, rat F, oral 50 mg/kg/day, Day 1, mean (SD)
[14] = male, Sprague-Dawley, rat, plasma, po, 10 mg/kg/day, rat M, oral 10 mg/kg/day, Day 1, mean (SD)
[15] = male, Sprague-Dawley, rat, plasma, po, 100 mg/kg/day, rat M, oral 100 mg/kg/day, Day 1, mean (SD)
[16] = plasma, rat, IV 0.3 mg/kg single dose
[17] = plasma, rat, IV 0.3 mg/kg single dose, mean (SD)
[18] = plasma, rat, IV 3 mg/kg single dose
[19] = plasma, rat, IV 3 mg/kg single dose, mean (SD)
[20] = rat, plasma, po, 3 mg/kg, oral 3 mg/kg single dose, mean (SD)

OCT2, sequence (O15244 whole entry): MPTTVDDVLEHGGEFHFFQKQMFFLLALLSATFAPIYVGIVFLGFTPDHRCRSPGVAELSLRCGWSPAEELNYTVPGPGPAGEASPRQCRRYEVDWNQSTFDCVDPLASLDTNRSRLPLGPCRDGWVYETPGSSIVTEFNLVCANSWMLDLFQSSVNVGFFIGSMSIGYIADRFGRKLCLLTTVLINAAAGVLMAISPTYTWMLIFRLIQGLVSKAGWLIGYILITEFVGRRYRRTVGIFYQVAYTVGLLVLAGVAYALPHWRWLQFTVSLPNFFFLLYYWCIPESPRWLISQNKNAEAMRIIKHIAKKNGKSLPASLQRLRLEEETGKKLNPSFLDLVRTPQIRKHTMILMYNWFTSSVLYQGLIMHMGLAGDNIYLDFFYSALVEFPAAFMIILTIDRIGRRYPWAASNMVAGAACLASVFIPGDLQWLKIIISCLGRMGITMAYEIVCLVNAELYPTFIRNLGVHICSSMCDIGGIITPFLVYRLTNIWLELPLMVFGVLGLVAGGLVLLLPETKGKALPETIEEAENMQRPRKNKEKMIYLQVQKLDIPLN
MATEK, sequence (Q86VL8 1-566 isoform Q86VL8-3): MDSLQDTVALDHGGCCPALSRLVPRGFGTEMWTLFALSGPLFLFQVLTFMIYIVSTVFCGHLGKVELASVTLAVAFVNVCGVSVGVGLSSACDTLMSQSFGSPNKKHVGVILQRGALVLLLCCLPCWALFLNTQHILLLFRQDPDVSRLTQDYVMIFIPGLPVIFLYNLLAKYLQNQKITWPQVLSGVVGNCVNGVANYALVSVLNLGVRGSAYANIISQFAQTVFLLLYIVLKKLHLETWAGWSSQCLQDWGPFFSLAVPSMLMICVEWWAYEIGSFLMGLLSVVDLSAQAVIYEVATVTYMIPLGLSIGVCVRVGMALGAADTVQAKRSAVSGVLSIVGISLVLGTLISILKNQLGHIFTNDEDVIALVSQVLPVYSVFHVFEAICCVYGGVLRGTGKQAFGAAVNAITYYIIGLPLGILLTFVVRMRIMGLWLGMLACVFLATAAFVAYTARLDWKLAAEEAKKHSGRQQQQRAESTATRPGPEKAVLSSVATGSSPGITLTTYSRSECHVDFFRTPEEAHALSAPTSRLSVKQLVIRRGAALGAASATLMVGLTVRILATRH

With CC[C@@H]1CN(C(=O)NCC(F)(F)F)C[C@@H]1c1cnc2cnc3[nH]ccc3n12 [Compound 1, (3S,4R)-3-ethyl-4-(3H-imidazo[1,2-a]pyrrolo[2,3-e]pyrazin-8-yl)-N-(2,2,2-trifluoroethyl)pyrrolidine-1-carboxamide] the IC50 [1] was roughly 20 nM, the “maternal and fetal examinations” value ([2]; 2.5 and 10 mg/kg/day) was “no Compound 1-related effects” and the NOEL ([2]; oral, GD 7-19) was “NOEL = 10 mg/kg/day”. For the same molecule, the AUC ([3]; female, Sprague-Dawley, plasma, rat F, oral 10 mg/kg/day, Day 1, mean (SD)) was 1870 ng·h/mL, the AUC at 29 days ([3]; female, Sprague-Dawley, plasma, rat F, oral 10 mg/kg/day, Day 29, mean (SD)) was 2280 ng·h/mL and the AUC ([3]; female, Sprague-Dawley, plasma, rat F, oral 50 mg/kg/day, Day 1, mean (SD)) was 22400 ng·h/mL. For the same molecule, the AUC at 29 days ([3]; female, Sprague-Dawley, plasma, rat F, oral 50 mg/kg/day, Day 29, mean (SD)) was 33200 ng·h/mL, the AUC ([3]; female, Sprague-Dawley, plasma, rat F, oral 100 mg/kg/day, Day 1, mean (SD)) was 54100 ng·h/mL and the AUC at 29 days ([3]; female, Sprague-Dawley, plasma, rat F, oral 100 mg/kg/day, Day 29, mean (SD)) was 63800 ng·h/mL. The AUC ([3]; female, Sprague-Dawley, plasma, rat F, oral 200 mg/kg/day, Day 1, mean (SD)) was 108000 ng·h/mL, the Cmax ([3]; female, Sprague-Dawley, rat, plasma, po, 10 mg/kg/day, rat F, oral 10 mg/kg/day, Day 1, mean (SD)) was 468 ng/mL and the Cmax at 29 days ([3]; female, Sprague-Dawley, rat, plasma, po, 10 mg/kg/day, rat F, oral 10 mg/kg/day, Day 29, mean (SD)) was 650 ng/mL. For the same molecule, the Cmax [3, 13] was 5160 ng/mL, the Tmax [3, 13] was 2.2 h and the Cmax ([3]; female, Sprague-Dawley, rat, plasma, po, 100 mg/kg/day, rat F, oral 100 mg/kg/day, Day 1, mean (SD)) was 13500 ng/mL. It also gave a Cmax ([3]; female, Sprague-Dawley, rat, plasma, po, 200 mg/kg/day, rat F, oral 200 mg/kg/day, Day 1, mean (SD)) of 18200 ng/mL, an AUC ([3]; male, Sprague-Dawley, plasma, rat M, oral 10 mg/kg/day, Day 1, mean (SD)) of 1390 ng·h/mL and an AUC at 29 days ([3]; male, Sprague-Dawley, plasma, rat M, oral 10 mg/kg/day, Day 29, mean (SD)) of 1490 ng·h/mL. The AUC ([3]; male, Sprague-Dawley, plasma, rat M, oral 50 mg/kg/day, Day 1, mean (SD)) was 15900 ng·h/mL, the AUC at 29 days ([3]; male, Sprague-Dawley, plasma, rat M, oral 50 mg/kg/day, Day 29, mean (SD)) was 16800 ng·h/mL and the AUC ([3]; male, Sprague-Dawley, plasma, rat M, oral 100 mg/kg/day, Day 1, mean (SD)) was 24900 ng·h/mL. The AUC at 29 days ([3]; male, Sprague-Dawley, plasma, rat M, oral 100 mg/kg/day, Day 29, mean (SD)) was 40800 ng·h/mL, the AUC ([3]; male, Sprague-Dawley, plasma, rat M, oral 200 mg/kg/day, Day 1, mean (SD)) was 50400 ng·h/mL and the Cmax [3, 14] was 224 ng/mL. For the same molecule, the Tmax [3, 14] was 2.2 h, the Cmax ([3]; male, Sprague-Dawley, rat, plasma, po, 50 mg/kg/day, rat M, oral 50 mg/kg/day, Day 1, mean (SD)) was 3030 ng/mL and the Cmax [3, 15] was 3910 ng/mL. For the same molecule, the Tmax [3, 15] was 3.2 h, the Tmax at 29 days ([3]; male, Sprague-Dawley, rat, plasma, po, 100 mg/kg/day, rat M, oral 100 mg/kg/day, Day 29, mean (SD)) was 3.2 h and the Cmax ([3]; male, Sprague-Dawley, rat, plasma, po, 200 mg/kg/day, rat M, oral 200 mg/kg/day, Day 1, mean (SD)) was 7250 ng/mL. It also gave a half-life [3, 16] of 1 h, an AUC(0-inf) [3, 17] of 80 ng·h/mL and a clearance [3, 17] of 63.3 mL/min/kg. The Vd [3, 16] was 2.7 L/kg, the half-life [3, 18] was 3 h and the AUC(0-inf) [3, 19] was 1550 ng·h/mL. It also gave a clearance [3, 19] of 33.3 mL/min/kg, a Vd [3, 18] of 2.2 L/kg and a clearance ([3]; plasma, rat, IV) of 33.3 to 63.3 mL/min/kg. It also gave a half-life ([3]; plasma, rat, oral 3 mg/kg single dose) of 5.2 h, an AUC(0-inf) ([3]; plasma, rat, oral 3 mg/kg single dose, mean (SD)) of 472 ng·h/mL and a Vc ([3]; rat, IV 0.3 mg/kg single dose) of 1.8 L/kg. The Vβ ([3]; rat, IV 0.3 mg/kg single dose) was 5.7 L/kg, the Vc ([3]; rat, IV 3 mg/kg single dose) was 0.46 L/kg and the Vβ ([3]; rat, IV 3 mg/kg single dose) was 9.4 L/kg. For the same molecule, the F ([3]; rat, oral 3 mg/kg single dose, mean (SD), 3 mg/kg) was 30.5% and 30.5 (11.8) %, the Cmax [3, 20] was 95 ng/mL and the Tmax [3, 20] was 2.2 h. For the same molecule, the CLint scaled at 1 μM [4] was 6.1 mL/min/kg, the photostability [5] was “photoinstability” and the IC50 [6] was greater than 15000 nM. The “inhibition of OCT2 uptake” value [7] was “No significant inhibition”, the CLint scaled at 1 μM [8] was 6.88 mL/min/kg and the “adverse events severe, serious, or fatal” value (Study M13-845) was “None”. The “number of adverse events in combined treatment groups” value (Substudy 2, RA on MTX, 6, 12, 24 mg BID, all reported as not related) was 7, the “subjects reporting treatment emergent AEs (6 out of 42)” value (healthy volunteers, as printed under Substudy 1) was 14.3% and the “Adverse Findings” value ([9]; both, 4 weeks) was 100: Kidneys-cortical tubular. The dose-limiting effects [9] was “mortality”, the “change in RBC counts compared to control means” value ([9]; 100 mg/kg/day) was −13% and the “change in hematocrit compared to control means” value ([9]; 100 mg/kg/day) was −14%. For the same molecule, the “increase in mean phosphorus (up to, vs control mean)” value ([9]; 100 mg/kg/day) was “+10%”, the fraction unbound [10] was 0.82 and the “inhibition of GMCSF-induced pSTAT5” value [11] was “partial inhibition”. The AUC(0-t) ([12]; female, in vivo, females) was 6840 ng·h/mL, the Cmax ([12]; female, in vivo, females) was 2240 ng/mL and the NOAEL at 6 months ([12]; in vivo, rat, 6 months (26 weeks) oral gavage) was 20 mg/kg/day. The AUC(0-t) ([12]; male, in vivo, males) was 3830 ng·h/mL, the Cmax ([12]; male, in vivo, males) was 1110 ng/mL and the “Adverse Findings” value ([12]; rat, 26 weeks, 50 mg/kg/day) was 50: Kidneys-tubular.
